For data set [1], the target named is T1, AsnO D241N (Streptomyces coelicolor, UniProt Q9Z4Z5, D241N/M1S). The data set can be described thus: Substrate specificity of the mutated protein AsnO D241N, HPLC/MS. It is filed as biochemical. Details: made in house; host or cells: E. coli BL21 (DE3), pQTEV vector. The settings on record: amino acid 1.5 mM, 16 h at 16° C., (NH4)2Fe(SO4)2 1 mM, α-ketoglutarate 4 mM, catalase, HEPES pH 7.5. As to the method:
The specificity of AsnO D241N for the conversion of L-Asp in L-threo-3-hydroxyaspartate is examined by incubating this mutated protein during 16 h at 16° C. with the amino acids (1.5 mM) listed in Table 1, the cofactor (NH4)2Fe(SO4)2 (1 mM), the cosubstrate α-ketoglutarate (4 mM) and 20 μg catalase in […] of a 50 mM HEPES buffer (pH 7.5). The catalase is added in order to quench reactive oxygen species and to prevent hereby the autoxidation of the enzyme. Controls are carried out in the absence of AsnO D241N.
The reaction is stopped by the addition of 50-200 μL of a 4% solution (V/V) of nonafluoropentane acid and subsequently the hydroxylation of the amino acid substrate to the respectively corresponding hydroxy amino acid is examined by means of reversed phase HPLC/MS. Column: Hypercarb (Thermo Electron Corporation, pore diameters of 250 Å, particle size of 5 μM, 100% carbon). Mobile phases: A=20 mM aqueous nonafluoropentane acid, B=acetonitrile. Gradient: 0-10% B in 12 min, flow rate 0.2 mL/min at 17.5° C.
The reaction product of the incubation of the respective amino acid with AsnO D241N is carried out by means of highest resolution MS with an API Qstar Pulsar I (Applied Biosystems).

A further data set has as its system glutamate transporters. The following applies: literature statement; cited from earlier work.
The next data set concerns wild type AsnO. The data set can be described thus: Kinetic parameters of the wild type AsnO for L-Asn (comparison). It is filed as biochemical, Streptomyces coelicolor. The settings on record: wild type AsnO with L-Asn versus AsnO D241N with L-Asp.
For data set [2], the target named is T1, AsnO D241N. The following applies: AsnO D241N 40 μM, substrate L-Asp 50 μM to 2 mM.
Data set [3] has as its target T1, AsnO D241N. Put plainly: Activity of the AsnO D241N mutant: conversion of L-Asp, HPLC MS. The format is biochemical. Details: made in house; host or cells: E. coli BL21 (DE3), pQTEV vector. The settings on record: AsnO D241N 40 μM, 1.5 mM L-Asp, 1.0 mM (NH4)2Fe(SO4)2, 1.0 mM α-ketoglutarate, 16 h, 16° C. As for the experimental part:
In order to evaluate the activity of the AsnO D241N mutant, the purified enzyme
The reaction is monitored by means of HPLC MS, by scanning the masses for L-Asp ([M+H]^+=[…]) and its hydroxylated form ([M+H]^+=150.04 Da). […] (FIG. 3a). In the control reaction, in which no enzyme is added, only L-Asp can be detected (FIG. 3b). Commercially available L-Asp (Bachem) as well as L-threo-3-hydroxyaspartate (Tocris Bioscience) are used as standards for the comparison of the retention times with HPLC.
Column: Hypercarb (Thermo Electron Corporation, pore diameters of 250 Å, particle size of 5 μM, 100% carbon). Mobile phases: A=20 mM aqueous nonafluoropentane acid, B=acetonitrile Gradient: 0-10% B in 12 min, flow rate 0.2 mL 1 min at 17.5° C. • FIG. 3a: negative control, no addition of enzyme (=AsnO D241N) • Only L-Asp is detected. • Retention time: 3.72 min; • Mber=134.045, Mgef=134.048 • FIG. 3b: incubation of L-Asp with AsnO D241N • After 16 h of incubation at 16° C. only • L-threo-3-hydroxyaspartate is detected. • Retention time 3.39 min; • Mber=150.040, Mgef=150.042

Substrate in data set [4]: NC(=O)C[C@H](N)C(=O)O
The data set can be described thus: Kinetic parameters of the wild type AsnO for L-Asn (comparison). The format is biochemical, Streptomyces coelicolor. The following applies: other: wild type AsnO, substrate L-Asn.

T1 sequence (Q9Z4Z5 other isoform, or with tags, fused parts or gaps D241N): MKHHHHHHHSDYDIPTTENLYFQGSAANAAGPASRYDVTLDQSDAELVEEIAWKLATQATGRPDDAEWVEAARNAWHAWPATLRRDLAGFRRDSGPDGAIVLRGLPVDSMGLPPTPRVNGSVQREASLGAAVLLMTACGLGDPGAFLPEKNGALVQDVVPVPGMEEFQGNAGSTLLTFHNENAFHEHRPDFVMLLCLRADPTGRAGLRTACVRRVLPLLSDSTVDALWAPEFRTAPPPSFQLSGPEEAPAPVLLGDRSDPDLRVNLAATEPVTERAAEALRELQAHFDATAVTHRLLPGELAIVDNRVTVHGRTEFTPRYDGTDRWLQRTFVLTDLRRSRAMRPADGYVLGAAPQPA

With `N[C@@H](CCC(=O)O)C(=O)O` [L-Glu, L-glutamate], on AsnO D241N [1], the hydroxylation result was “no”.
For the molecule `NC(C(=O)O)C(OCc1ccccc1)C(=O)O` [L-TBOA], in the data set with glutamate transporters, the “inhibition of the function of the glutamate transporters” value was “also comprises this inhibitor effect”.
Consider `CC[C@H](C)[C@H](N)C(=O)O` [L-Ile], for which, on AsnO D241N [1], the hydroxylation entry is given as “no”.
Still for that read-out and setting: in the case of `NC(=O)CC[C@H](N)C(=O)O` [L-Gln] it was “no”.
On the same count and under the same terms, in the case of `N[C@@H](Cc1ccccc1)C(=O)O` [L-Phe] it was “no”.
Turning to `N[C@H](C(=O)O)[C@H](O)C(=O)O` [L-threo-hydroxaspartate, L-threo-hydroxyaspartate], the “inhibition of the function of the glutamate transporters” value in the data set with glutamate transporters is on record as “inhibits the function of the glutamate transporters”.
On to `N[C@@H](Cc1c[nH]c2ccccc12)C(=O)O` [L-Trp], for which the hydroxylation result at AsnO D241N [1] is on record as “no”.
Still for that read-out and setting: in the case of `CC(C)[C@H](N)C(=O)O` [L-Val] it was “no”; in that of `N[C@H](CC(=O)O)C(=O)O` [D-Asp], “no”.
In the case of `NC(=O)C[C@H](N)C(=O)O` [L-Asn, L-asparagine], the hydroxylation entry at AsnO D241N [1] is recorded as “no”. Moreover, the “kcat of wild type AsnO relative to AsnO D241N” value in the data set on wild type AsnO was determined as 300 times.
In general, Km refers to the substrate concentration at which the rate is half of its maximum. Usually kcat stands for the number of substrate molecules converted per active site and unit of time at saturation. Regarding `N[C@@H](CC(=O)O)C(=O)O` [L-Asp, L-aspartate], at AsnO D241N [2], the Km was found to be 457 ± 31 µM. In addition, the kcat on AsnO D241N [2] is 0.0167 ± 0.0017 s⁻¹. The “conversion of L-aspartate to L-threo-3-hydroxyaspartate” value is reported as “Quantitative conversion” on AsnO D241N [3] and “quantitative conversion” on AsnO D241N [3] (listed as L-aspartate). Further, on AsnO D241N [1], the hydroxylation entry is “yes”.

B1: wild type AsnO (Streptomyces coelicolor A3(2)) (protein)
chain: MAANAAGPASRYDVTLDQSDAELVEEIAWKLATQATGRPDDAEWVEAARNAWHAWPATLRRDLAGFRRDSGPDGAIVLRGLPVDSMGLPPTPRVNGSVQREASLGAAVLLMTACGLGDPGAFLPEKNGALVQDVVPVPGMEEFQGNAGSTLLTFHNENAFHEHRPDFVMLLCLRADPTGRAGLRTACVRRVLPLLSDSTVDALWAPEFRTAPPPSFQLSGPEEAPAPVLLGDRSDPDLRVDLAATEPVTERAAEALRELQAHFDATAVTHRLLPGELAIVDNRVTVHGRTEFTPRYDGTDRWLQRTFVLTDLRRSRAMRPADGYVLGAAPQPA
For the molecule B1, in data set [4], the Km turned out to be 478 ± 67 µM and the kcat turned out to be 4.97 ± 0.317 s⁻¹.

The record behind these values is US20100184189A1, “PROTEIN FOR THE CHEMOENZYMATIC PRODUCTION OF L-THREO-HYDROXYASPARTATE” (priority 2007, published 2010).
